Assay results taken from publication PMC10094543 (International Journal of Molecular Sciences, 2023).
Values joined by “and” are separate entries in the source; they are usually repeats but may differ in a detail not shown here. Equal entries are not always repeated. Where two headings read alike, the source gives them in different places.

What was measured:
NgBCCP = type: biochemical, Neisseria gonorrhoeae
[1] = target: T1, NgBCCP (Neisseria gonorrhoeae bacterial peroxidase) (Neisseria gonorrhoeae, UniProt Q5F5Z9); assay: steady-state kinetics, ABTS oxidation at […] nm; type: biochemical
T1 construct: gene NGO_1769; globular domain only (lipid anchor and AAEAP linker absent), pelB signal peptide, C-terminal His-tag; E. coli BL21(DE3) with pEC86; 38 kDa; di-heme c; Ca-dependent monomer/dimer equilibrium, dimer in crystal
T1 sequence (Q5F5Z9 59-387): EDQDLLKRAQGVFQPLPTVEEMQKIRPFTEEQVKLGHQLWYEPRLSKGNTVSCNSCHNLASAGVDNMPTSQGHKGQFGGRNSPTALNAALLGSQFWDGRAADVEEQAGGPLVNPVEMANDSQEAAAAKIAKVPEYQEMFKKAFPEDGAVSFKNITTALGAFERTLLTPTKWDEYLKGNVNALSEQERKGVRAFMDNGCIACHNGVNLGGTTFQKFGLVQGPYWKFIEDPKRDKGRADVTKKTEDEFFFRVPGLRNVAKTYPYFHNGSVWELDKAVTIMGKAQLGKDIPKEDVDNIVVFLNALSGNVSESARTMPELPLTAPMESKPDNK

[2] = target: mixed-valence NgBCCP (P heme); settings: read-out: Kapp (apparent dissociation constant); pH 6
N. europaea BCCP = settings: pH 7; cited from earlier work
P. aeruginosa BCCP = settings: cited from earlier work

c1c[nH]cn1 [imidazole]
Vmax app (NgBCCP): 0.55 ± 0.01 µM/s and 0.49 ± 0.01 µM/s and 0.48 ± 0.01 µM/s and 0.65 ± 0.01 µM/s and 0.44 ± 0.02 µM/s and 0.63 ± 0.04 µM/s and 0.58 ± 0.02 µM/s | a (α) (NgBCCP): 2.8 | b (β) (NgBCCP): 0.0 | mechanism of inhibition (NgBCCP): partially uncompetitive | Ki (NgBCCP; pH 7.5): 9 ± 4 mM | mechanism of inhibition (NgBCCP; pH 7.5): non-competitive/partially competitive | Ki [1]: 9 ± 4 mM

azide
Kd [2]: 3.8 mM | Ki (N. europaea BCCP): 4.7 mM | inhibition mechanism (P. aeruginosa BCCP): non-competitive | Ki (P. aeruginosa BCCP; pH 6): 3.1 mM | Vmax app (NgBCCP): 0.56 ± 0.003 µM/s and 0.53 ± 0.004 µM/s and 0.71 ± 0.001 µM/s and 0.66 ± 0.010 µM/s and 0.59 ± 0.001 µM/s | a (α) (NgBCCP): 2.4 | b (β) (NgBCCP): 0.0 | mechanism of inhibition (NgBCCP; pH 7.5): non-competitive/partially competitive
